Test results reported in patent US12171229B2, “Heteroaryl-triazole and heteroaryl-tetrazole compounds as pesticides” (BAYER AKTIENGESELLSCHAFT, priority 2018, dated 2024).

Legend:
Format in all cases: in vivo
[1] = test system: Anopheles funestus strain FUMOZ-R; test: Anopheles funestus test (ANPHFU surface treatment & contact assay); settings: 24 hours after contact, read-out: efficacy (mortality); for mortality at 20 mg/m2: surface concentration 20 mg/m^2, exposure 30 minutes
Procedure: Anopheles funestus Test (ANPHFU Surface Treatment & Contact Assay)
(§1) Solvent: Aceton+2000 ppm rapeseed oil methyl ester (RME)
(§2) In order to produce a sufficient, active ingredient containing solution it is necessary to solve the test compound in the solvent-mix (acetone at 2 mg/ml/RME 2000 ppm). This solution is pipetted onto a glazed tile and after evaporation of the acetone, adult mosquitoes of the species Anopheles funestus strain FUMOZ-R (Hunt et al., Med. Vet. Entomol. 2005 September; 19(3): 271-275) are placed onto the dried surface. The exposure time is 30 minutes.
(§3) Mortality in percent (%) is determined 24 hours after contact of the insects to the treated surface. 100% mortality means that all tested insects are dead, whereas 0% means that no insect died.

[2] = test system: Culex quinquefasciatus strain P00; test: Culex quinquefasciatus test (CULXFA surface treatment & contact assay); settings: 24 hours after contact, read-out: efficacy (mortality); for mortality at 4 mg/m2: surface concentration 4 mg/m^2, exposure 30 minutes; for mortality at 20 mg/m2: surface concentration 20 mg/m^2, exposure 30 minutes
Procedure: Culex Quinquefasciatus Test (CULXFA Surface Treatment & Contact Assay)
as §1
as §2, with “Culex quinquefasciatus” for “Anopheles funestus”, “P00” for “FUMOZ-R (Hunt et al., Med. Vet. Entomol. 2005 September; 19(3): 271-275)”
as §3

Nezara viridula = Nezara viridula spray test; settings: 96 h, after 4 days, larvae on barley plants
Summary of the method: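 Mortality (%) was assessed at day 4, from 0% (no bugs dead) to 100% (all dead). The spray solution was compound diluted to test concentration in water with 1000 ppm emulsifier and applied to barley carrying southern green stink bug larvae.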

Ctenocephalides felis [3] = test: Ctenocephalides felis in-vitro contact test, adult cat flea; settings: 5 μg/cm^2 (=500 g/ha), after 48 hours, adult cat fleas, read-out: efficacy (fleas dead or moribund)
Procedure: Ctenocephalides Felis—In-Vitro Contact Tests Adult Cat Flea 9 mg compound is solved in 1 ml acetone and diluted with acetone to the desired concentration. 250 μl of the test solution is filled in 25 ml glass test tubes and homogeneously distributed on the inner walls by rotation and tilting on a shaking device (2 h at 30 rpm). With a compound concentration of 900 ppm, an inner surface of 44.7 cm^2 and a homogeneous distribution, a dose of 5 μg/cm^2 is achieved. After the solvent has evaporated, each test tube is filled with 5-10 adult cat fleas (Ctenocephalides felis), closed with a perforated lid and incubated in a lying position at room temperature and relative humidity. After 48 hours efficacy is determined. The fleas are patted on the ground of the tubes and are incubated on a heating plate at 45-50° C. for at most 5 minutes. Immotile or uncoordinated moving fleas, which are not able to escape the heat by climbing upwards, are marked as dead or moribund. […] An efficacy of 100% means all fleas are dead or moribund; 0% means no fleas are dead or moribund.

Boophilus microplus = Boophilus microplus injection test; settings: Rhipicephalus microplus, 168 h; 20 μg/animal injected into the abdomen; adult engorged female ticks; egg deposition after 7 days; read-out: efficacy (infertile eggs)
Summary of the method: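 Efficacy, from 0% (all eggs fertile) to 100% (all infertile), was scored on eggs laid by five engorged adult females. Each female was injected intra-abdominally with 1 μl of compound solution in DMSO. Fertile egg laying was checked at 7 days, with uncertain eggs kept until hatching at about 42 days.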

Myzus persicae [4] = test: Myzus persicae oral test; settings: 120 h, 4 ppm, after 5 days
Summary of the method: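 Aphid mortality (%) was recorded 5 days after a mixed Myzus persicae population began sucking, through parafilm, on compound solutions (acetone stock diluted with water) combined with sugar-supplemented IPL41 medium.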

Ctenocephalides felis [5] = test: Ctenocephalides felis oral test; settings: 48 h, 100 ppm in cattle blood, after 2 days, adult unfed cat fleas
Summary of the method: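 Compound dissolved in DMSO and diluted in cattle blood to test concentration, offered to ~20 unfed adult fleas via a parafilm-sealed blood chamber held at 37° C (fleas at room temperature). Kill recorded at 2 days as % mortality.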

Diabrotica balteata = Diabrotica balteata spray test; settings: Diabrotica balteata, in Triticum aestivum, 168 h, after 7 days, larvae on wheat seeds, read-out: efficacy (seedlings grown up); for pest or weed control at 80 µg/disc, 250 g/ha: 80 μg/well (=250 g/ha); for pest or weed control at 160 µg/disc, 500 g/ha: 160 μg/well (=500 g/ha)
Summary of the method: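 Scoring at 7 days compares seedling growth with untreated, uninfested controls (100% = equal growth, 0% = none grown). Wheat seedlings germinated 1 day on agar, 5 per well, received a spray of test solution made in 1000 ppm emulsifier water. Each unit then received 10–20 beetle larvae.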

Spodoptera frugiperda = Spodoptera frugiperda spray test; settings: 168 h, after 7 days, larvae on maize leaf sections
Summary of the method: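 Percent larval kill read at day 7 on Zea mays leaf pieces that were spray-treated and, after drying, infested. Spray preparations made by dilution with emulsifier-containing water (1000 ppm).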

[6] = test system: Aedes aegypti strain MONHEIM; test: Aedes aegypti test (AEDSAE surface treatment & contact assay); settings: 24 hours after contact, read-out: efficacy (mortality); for mortality at 4 mg/m2: surface concentration 4 mg/m^2, exposure 30 minutes; for mortality at 20 mg/m2: surface concentration 20 mg/m^2, exposure 30 minutes
Summary of the method: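 Compound dissolved in acetone (2 mg/ml) with 2000 ppm rapeseed oil methyl ester, applied to glazed tile and dried; adult strain MONHEIM mosquitoes exposed 30 minutes. Percent mortality scored 24 hours after contact.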

Myzus persicae [7] = test: Myzus persicae spray test; settings: foliar, 120 h, after 5 days, Chinese cabbage leaf disks
Summary of the method: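 Percent kill was recorded 5 days after spraying. Test solutions, prepared with solvent and diluted in 1000 ppm emulsifier water, were applied to Brassica pekinensis leaf disks carrying mixed-instar green peach aphids.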

Nilaparvata lugens = Nilaparvata lugens spray test; settings: 336 h, after 14 days, rice plants
Procedure: Nilaparvata lugens—Spray Test
To produce a suitable preparation of active compound, 1 part by weight of active compound is mixed with the stated amount of solvents and is diluted with water, containing an emulsifier concentration of 1000 ppm, to the desired concentration. Further test concentrations are prepared by dilution with emulsifier containing water.
Rice plants (Oryza sativa) are sprayed with a preparation of the active ingredient of the desired concentration and the plants are infested with the brown planthopper (Nilaparvata lugens).
After 14 days mortality in % is determined. 100% means all planthoppers have been killed and 0% means none of the planthoppers have been killed.

[8] = test system: Musca domestica strain WHO-N; test: Musca domestica test (MUSCDO surface treatment & contact assay); settings: 24 hours after contact, read-out: efficacy (mortality)
Procedure: Musca domestica test (MUSCDO surface treatment & contact assay)
as §1
as §2, with “flies” for “mosquitoes”, “Musca domestica” for “Anopheles funestus”, “WHO-N” for “FUMOZ-R (Hunt et al., Med. Vet. Entomol. 2005 September; 19(3): 271-275)”
Mortality in percent (%) is determined 24 hours after contact of the insects to the treated surface. 100% morality means that all tested insects are dead, whereas 0% means that no insect died.

[9] = surface concentration 4 mg/m^2, exposure 30 minutes

Row | SMILES | mortality at 20 mg/m2 [1] [%] | mortality at 4 mg/m2 [2] [%] | mortality at 20 mg/m2 [2] [%] | mortality at 500 g/ha (Nezara viridula) [%] | pest or weed control at 5 µg/cm2 (Ctenocephalides felis [3]) [%] | pest or weed control at 0.02 mg (Boophilus microplus) [%] | mortality at 4 ppm (Myzus persicae [4]) [%] | mortality at 100 ppm (Ctenocephalides felis [5]) [%] | pest or weed control at 80 µg/disc, 250 g/ha (Diabrotica balteata) [%] | pest or weed control at 160 µg/disc, 500 g/ha (Diabrotica balteata) [%] | mortality at 100 g/ha (Spodoptera frugiperda) [%] | mortality at 500 g/ha (Spodoptera frugiperda) [%] | mortality at 4 mg/m2 [6] [%] | mortality at 20 mg/m2 [6] [%] | mortality at 100 g/ha (Myzus persicae [7]) [%] | mortality at 500 g/ha (Myzus persicae [7]) [%] | mortality at 500 g/ha (Nilaparvata lugens) [%] | mortality at 100 g/ha (Nezara viridula) [%] | further results
1 | CC(=O)Nc1ccc(-n2ncnc2[C@H](C)NC(=O)c2cc(Cl)cc(C(F)(F)F)c2)nc1 [Example I-033] | 90 to 100 | 90 to 100 | 90 to 100 | 100 | 100 | 100 | 100 | 100 | 100 | 100 | 100 | 100 | 90 to 100 | 90 to 100 | 100 | 100 | – | – | –
2 | C[C@H](NC(=O)c1cc(Cl)cc(C(F)(F)F)c1)c1ncnn1-c1ccc(OCC(F)(F)F)cn1 [Example I-039, 3-chloro-N-[(1S)-1-{1-[5-(2,2,2-trifluoroethoxy)pyridin-2-yl]-1H-1,2,4-triazol-5-yl}ethyl]-5-(trifluoromethyl)benzamide] | – | – | – | – | – | 100 | – | 100 | 100 | 100 | 100 | 100 | 90 to 100 | – | – | – | 100 | – | –
3 | C[C@H](NC(=O)c1cc(Cl)cc(C(F)(F)F)c1)c1ncnn1-c1ncc(F)cc1F [Example I-014] | 90 to 100 | 90 to 100 | 90 to 100 | 100 | – | 100 | 100 | 100 | 100 | 100 | 100 | 100 | 90 to 100 | 90 to 100 | 90 | 90 | 100 | 100 | mortality at 4 mg/m2 [1, 9]: 85 to 100%; mortality at 4 mg/m2 [8, 9]: 90 to 100%; mortality at 20 mg/m2 ([8]; surface concentration 20 mg/m^2, exposure 30 minutes): 90 to 100%
4 | CC[C@H](NC(=O)c1cc(Cl)cc(OC(F)(F)F)c1)c1ncnn1-c1ccc(C#N)cn1 [Example I-070] | – | – | – | – | – | 100 | – | 80 | – | – | 100 | 100 | – | – | – | – | 100 | – | –
5 | CC(NC(=S)c1cc(Cl)cc(C(F)(F)F)c1)c1ncnn1-c1ccc(C#N)cn1 (stereo in doubt) [Example I-080, 3-chloro-N-{(1R)-1-[1-(5-cyanopyridin-2-yl)-1H-1,2,4-triazol-5-yl]ethyl}-5-(trifluoromethyl)benzenecarbothioamide] | – | – | – | 100 | 100 | 100 | – | 100 | 100 | 80 | 100 | 100 | – | – | – | – | 100 | 100 | –
